Experiments:
[1] = target: T1, hM3 muscarinic receptor subtype (Homo sapiens, UniProt P20309); test: Radioligand binding assay on muscarinic receptor subtypes ([3H]-NMS displacement)
T1 construct: expressed in transfected cells; crude membranes prepared in house
Method: CHO cell lines stably expressing cloned human hM1, hM2, hM3 and hM4 muscarinic receptor subtypes, respectively, were grown to near confluency in medium consisting of HAM's F-12 supplemented with 10% FBS and 250 μg/mL Geneticin. The cells were grown in a 5% CO2, 37° C. incubator and lifted with 2 mM EDTA in dPBS. Cells were collected by 5 minute centrifugation at 650×g, and cell pellets were either stored frozen at −80° C. or membranes were prepared immediately. For membrane preparation, cell pellets were resuspended in lysis buffer and homogenized with a Polytron PT-2100 tissue disrupter (Kinematica AG; 20 seconds×2 bursts). Crude membranes were centrifuged at 40,000×g for 15 minutes at 4° C. […] The protein concentration of the membrane suspension was determined by the method described in Lowry, O. et al., Journal of Biochemistry 193:265 (1951). […]
Radioligand binding assays were performed in 96-well microtiter plates in a total assay volume of […]. […] Filter plates were rinsed three times with wash buffer (10 mM HEPES) to remove unbound radioactivity. […] The plates were then counted in a PerkinElmer Topcount liquid scintillation counter (PerkinElmer Inc., Wellesley, Mass.). Binding data were analyzed by nonlinear regression analysis with the GraphPad Prism Software package (GraphPad Software, Inc., San Diego, Calif.) using the one-site competition model. […]

[2] = test system: MCh response; test: Rat Einthoven assay (bronchoprotection); assay type: in vivo; settings: inhalation; for ID50 (bronchoprotection): 1.5 hrs post-dose
Method: All test compounds are diluted in sterile water and are dosed via the inhalation route (IH). The rats (Sprague-Dawley, male, 250-350 g) are exposed to the aerosol generated from an LC Star Nebulizer Set and driven by a mixture of gases (5% CO2/95% atmospheric air). Each test compound solution is nebulized over a 10 minute time period in a pie shaped dosing chamber capable of holding six rats. At predetermined time points after inhalation of compound, the Einthoven assay is performed.
Thirty minutes prior to the start of pulmonary evaluation, the animals are anesthetized with inactin (thiobutabarbital, 120 mg/kg IP). The jugular vein is catheterized with saline filled polyethylene catheters (PE-50) and used to infuse MCh. The trachea is then dissected and cannulated with a 14G needle and used for rat ventilation during pulmonary evaluation. Once surgery is complete, rats are ventilated using a piston respirator set at a stroke volume of 1 ml/100 g body weight but not exceeding 2.5 ml volume, and at a rate of 90 strokes per minute.
The changes in pressure that occur with each breath are measured. Baseline values are collected for at least 2.5 minutes then rats are challenged non-cumulatively with 2-fold incremental increases of the bronchoconstrictor MCh (5, 10, 20, 40 and 80 μg/ml). The MCh is infused for 2.5 minutes from a syringe pump at a rate of 2 mL/kg/min. The animals are euthanized upon completion of the studies.
Changes in ventilation pressure (cm H2O) in treated animals are expressed as % inhibition of MCh response relative to control animals.
Standard muscarinic antagonists were evaluated in the rat Einthoven assay 1.5 hrs post-dose.
Standards tiotropium and ipratropium were also evaluated 24 hr and/or 6 hr post-dose in the rat Einthoven assay. […] The observed loss of activity at this time point (6 hr) is consistent with its relatively short duration of action in the clinic.

[3] = test system: pilocarpine-induced salivation; test: Rat antisialagogue assay; assay type: in vivo; settings: evaluated at 1, 6, and 24 hr post-dose
Method: Rats (Sprague-Dawley, male, 250-350 g) are dosed, anesthetized and cannulated as described for Assay 3. At predetermined time points and after surgery, animals are placed on their dorsal side at a 200 incline with their head in a downward slope. A pre-weighed gauze pad is inserted in the animal's mouth and the muscarinic agonist pilocarpine (PILO) (3 mg/kg, iv.) is administered. Saliva produced during 10 minutes post-PILO is measured gravimetrically by determining the weight of the gauze pad before and after PILO. Antisialagogue effects are expressed as % inhibition of salivation relative to control animals.
The rat antisialagogue assay was developed to assess systemic exposure and calculate the lung selectivity index (LSI) of test compounds. The standard, tiotropium, was evaluated in this model at 1, 6, and 24 hr post-dose. […] This finding is consistent with the peak effects observed in the Einthoven assay.
This model is a modified version of the procedure described in Rechter, “Estimation of anticholinergic drug effects in mice by antagonism against pilocarpine-induced salivation” Ata Pharmacol Toxicol 24:243-254 (1996). The mean weight of saliva in vehicle-treated animals, at each pre-treatment time, is calculated and used to compute % inhibition of salivation, at the corresponding pre-treatment time, at each dose.

T1 sequence (P20309 whole entry): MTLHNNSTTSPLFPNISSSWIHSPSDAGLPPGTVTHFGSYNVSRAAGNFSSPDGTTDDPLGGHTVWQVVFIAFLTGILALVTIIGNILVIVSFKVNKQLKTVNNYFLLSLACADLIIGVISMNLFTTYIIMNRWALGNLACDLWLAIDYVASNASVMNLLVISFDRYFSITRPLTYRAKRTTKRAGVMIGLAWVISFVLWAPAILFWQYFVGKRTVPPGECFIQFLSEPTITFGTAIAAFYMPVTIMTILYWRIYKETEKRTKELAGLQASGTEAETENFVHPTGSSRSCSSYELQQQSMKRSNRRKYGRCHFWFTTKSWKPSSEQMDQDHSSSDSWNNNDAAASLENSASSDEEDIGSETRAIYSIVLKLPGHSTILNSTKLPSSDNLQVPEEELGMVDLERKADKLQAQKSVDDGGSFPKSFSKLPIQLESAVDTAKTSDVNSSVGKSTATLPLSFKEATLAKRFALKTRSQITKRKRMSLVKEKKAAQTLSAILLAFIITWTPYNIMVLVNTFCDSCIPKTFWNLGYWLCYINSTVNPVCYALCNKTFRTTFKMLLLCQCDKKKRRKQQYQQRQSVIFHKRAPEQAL

C[N+]1(CCCSc2ccccc2)CC[C@@H](C(C(N)=O)(c2ccccc2)c2ccccc2)C1 (stereo partly drawn) [Example 2, (S)-3-(Carbamoyldiphenylmethyl)-1-methyl-1-(3-phenylsulfanylpropyl)pyrrolidinium]
Ki [1]: < 0.5 nM

C[N+]1(C)CCC(OC(=O)C(O)(c2ccccc2)C2CCCC2)C1 (stereo not shown) [glycopyrrolate]
ID50 (bronchoprotection) [2]: 15 µg/mL

CC(C)[N+]1(C)[C@@H]2CC[C@H]1C[C@@H](OC(=O)C(CO)c1ccccc1)C2 (stereo partly shown) [ipratropium]
fold less potent 6-hr post-dose compared to 1.5 hr potency ([2]; 10 and 30 μg/ml): about 3 fold
ID50 (bronchoprotection) [2]: 4.4 µg/mL

C[N+]1(C)[C@@H]2C[C@@H](OC(=O)C(O)(c3cccs3)c3cccs3)C[C@H]1[C@@H]1O[C@@H]12 [tiotropium]
time post dose at which most potent at inhibiting pilocarpine-induced salivation [3]: 6 h
6 hr versus 24 hr potency values [2]: not significantly different
fold more potent at 6 hr and 24 hr compared to 1.5 hr potency [2]: about 2 fold
onset of effect [2]: slow onset of effect
time of peak bronchoprotection post-dose [2]: 6 h
ID50 (bronchoprotection) [2]: 6 µg/mL

Source: patent US8802856B2, “Quaternary ammonium diphenylmethyl compounds useful as muscarinic receptor antagonists” (Theravance Biopharma R&D IP, LLC, priority 2007, dated 2014)
